In patent publication US20220142985A1, “AGENTS FOR TREATMENT OF ALCOHOL USE DISORDER” (SERVICIO ANDALUZ DE SALUD, priority 2018, published 2022):

Legend:
adult male Wistar rats = test: Alcohol self-administration model; type: in vivo, rat; conditions: for EC50 for inhibition of alcohol self-administration: acute administration 30 minutes before the session, 10% alcohol, non-linear regression, IC = confidence interval
Protocol: (§1) For the alcohol self-administration studies, 48 adult male Wistar rats (8 per group) (Harlan, Barcelona, Spain) weighing 375-425 g at the start of the experiments were individually housed in a 12-hour light/dark cycle (turned off at 12:00 p.m.) in a room at constant temperature (23±1° C.). Standard food and tap water were available ad libitum in the house cage. The animals were allowed to acclimate to the housing facilities for 2 weeks before the beginning of the alcohol self-administration protocol. For oxycodone self-administration, male Long-Evans rats (275-325 g) (Charles-River Laboratories, Raleigh, N.C.) were used throughout this study. Upon arrival, they were individually housed in a facility for animals under an inverted 12-h light/dark cycle (light turned on at 7:00 p.m.) with free access to food and water. They were allowed to acclimate to the new environment for at least 7 days before the start of the study. For alcohol consumption in the two-bottle choice paradigm, male Wistar rats weighing 250 g at the start of the experiments, or genetically selected Marchigian Sardinian (msP) male rats that prefer alcohol were used.
Animals were trained for the alcohol self-administration as previously described (Cippitelli et al., 2005. Eur J Neurosci. 21 (8):2243-51), in the room (Letica, model LE 850, Panlab, Barcelona, Spain) enclosed in sound-attenuating cages and equipped with an exhaust fan. The chambers were equipped with two retractable levers, one located on each side of a water pan.
The active lever side is equally distributed between sessions to prevent the development of location preferences. […] All the operant alcohol sessions lasted for 30 minutes per day 5 d/week (Monday to Friday). The amount of responses and the immersion presentations were automatically recorded by the computer software. The animals were weighed daily before the alcohol self-administration sessions. Training was carried out using a modification of the conventional saccharin fading method (Samson et al., 1999) described in Alen et al., 2009 (Nicotine Tob Res. 11 (11): 1304-11). For the first 3 days of training, the animals received a 0.2% saccharin solution in the dipper to facilitate the acquisition of the lever pressure level. After that point, the following sequence in a fixed ratio 1 was used: 0.16% saccharin and 2% alcohol for three sessions, 0.12% saccharin and 4% alcohol for three sessions, 0.08% saccharin and 6% alcohol for four sessions, 0.04% saccharin and 8% alcohol for four sessions, 0.02% saccharin plus 10% alcohol, and finally 10% alcohol alone for the remaining sessions. The first investigation was relatively similar, followed by a period of at least 6 weeks with access to alcohol (10% w/v). ciglitazone (0.01, 1.5, and 20 mg/kg), OEA (0.1, 1.5, and 20 mg/kg), WY 14643 (0.1, 5, 20, and 40) mg/kg), rimonabant (0.03, 0.3, 1, and 3 mg/kg), OLHHA (0.01, 0.1, 1, and 5 mg/kg), and NF 10-360 (1 mg/kg). The medicinal products were injected 30 minutes before the self-administration session. The animals were then left for a period of 24 hours, and then 30 minutes daily. The EtOH self-administration sessions were resumed and monitored.
(§2) GraphPad Prism v5.04 (GraphPad Software, San Diego, Calif., USA). Data was represented by means±SEM. EC50 values for the inhibition of alcohol, cocaine, or oxycodone self-administration were calculated using built-in non-linear regression equations. Supplementation with alcohol and the analysis of the effects of variability (ANOVA) with repeated measures (factors: treatment and treatment). Plasma metabolic parameters, cytokines, and liver mRNA resulting from the circulation expression were analyzed by means of a two-way ANOVA (factors: treatment (vehicle/OLHHA) and access to beverage ([…]/water)), and a multiple post hoc comparison test (Bonferroni) was performed. The p-value less than 0.05 was considered to be statistically significant.

Wistar rats = test: Alcohol consumption in the two-bottle choice model (Wistar rats, 10% alcohol); type: in vivo, rat; conditions: 1 mg/kg, P<0.05, FIG. 2A
Protocol: as §1
Voluntary alcohol intake was evaluated in a two-bottle choice test, as previously described [Stopponi et al., 2011. […] Intakes were recorded daily 2, 8, and 24 hours after the administration of OLHHA. Alcohol, water, and food intake were monitored daily. […]

[1] = tested on: liver mRNA of lipogenic enzymes, cytochrome c oxidase 4 and PPARα; test: Liver mRNA expression by RT qPCR after repeated OLHHA in msP rats; type: in vivo, rat; conditions: 5 mg/kg daily
Protocol: (§3) Voluntary alcohol intake was evaluated in a two-bottle choice test, as previously described [Stopponi et al., 2011. Biol Psychiatry. 69(7):642-]. Wistar rats or rats selected due to their alcohol preference (msP) were trained to drink water, 10% alcohol (v/v) (Wistar), or 20% alcohol (msP) for 24 hours per day until reaching a stable alcohol intake baseline. At this point, the rats were divided into different groups (n=9-10/group) to be treated with vehicle, NF 10-360 (0 or 1 mg/kg), or OLHHA (5 mg/kg). In the case of msP rats, treatment with OLHHA continued for 14 consecutive days, and the drug or vehicle was administered once a day before the start of the dark period of the light/dark cycle. Intakes were recorded daily 2, 8, and 24 hours after the administration of OLHHA. Alcohol, water, and food intake were monitored daily. The animals were sacrificed on day 14, 2 hours after the last administration of OLHHA.
(§4) The rats were sacrificed 2 hours after the last dose. Treated animals and animals treated with OLHHA were anesthetized with sodium pentobarbital (50 mg kg-1, i.p.), and blood and liver samples were taken. The blood was centrifuged (2100 g for 8 min, 4° C.) and the plasma was kept for later analysis. The liver samples were rapidly frozen in liquid N^2 and stored at −80° C. until analysis.
Real-time quantitative polymerase chain reaction (RT qPCR) was used to measure the relative quantification of the mRNA levels of the enzymes and proteins related to the oxidation of hand lipogenic fatty acids, as described in previous studies with OLHHA. [Decara et al., 2015. Dis Model Mech. 8(10): 1213-25]. Total mRNA was isolated using the Trizol® method according to the manufacturer's instructions (Gibco BRL Life Technologies, Baltimore, Md., USA). Resulting cDNA was used as templates for RT qPCR with an iCycler system (BioRad) using the Quanti-Test SYBR Green PCR kit (Qiagen, Hilden, Germany). The […] were provided by Sigma-Proligo (Proligo France SAS, Paris, France). Quantification was performed according to the following criteria [Decara et al., 2015. Dis Model Mech. 8(10): 1213-25]. The absolute values of each sample were normalized to observe β-actin mRNA (constitutive gene), which was used as a standard reference.
as §2, with “Supplementation with alcohol and the analysis of the effects of variability (ANOVA) with repeated measures (factors: treatment and treatment).” left out, “The p-value less than 0.05 was considered to be statistically significant.” left out

[2] = Plasma metabolite and cytokine measurements after repeated OLHHA in msP rats; type: in vivo; conditions: 5 mg/kg daily
Protocol: as §3, §4
The following metabolites, metabolic hormones, and cytokines were measured in plasma: metabolites glucose, triglycerides, cholesterol, uric acid, urea, creatinine, aspartate transaminase (GOT), alanine transaminase (GPT), interleukin-6, tumor necrosis factor α (TNF-a). They were analyzed in an automatic Hitachi 737 analyzer (Hitachi, Tokyo, Japan) according to the manufacturer's instructions. Levels of leptin, IL-6, and TNF-α were measured using commercial rat enzyme-linked immunosorbent assay kits (Abcam, Cambridge, United Kingdom).
as §2

[3] = tested on: Marchigian Sardinian (msP) male rats; test: Alcohol consumption in the two-bottle choice model (msP rats that prefer alcohol, 20% alcohol); type: in vivo, rat; conditions: 5 mg/kg daily
Protocol: as §1, §3

Long-Evans rats = test: Oxycodone self-administration; type: in vivo, rat; conditions: FIG. 3G
Protocol: as §1, with “used. […]” for “used.”
Oxycodone self-administration is carried out in an operant chamber with two response levers and a 15 W house light (Med Associates Inc., Georgia, Vt., USA). […] The response of each animal has been recorded throughout the entire training and testing process. […]

For Cc1c(C(=O)NN2CCCCC2)nn(-c2ccc(Cl)cc2Cl)c1-c1ccc(Cl)cc1 [Rimonabant, rimonabant], the “EC50 for inhibition of alcohol self-administration” value (“EC50 for inhibition” below) (adult male Wistar rats) was 0.5 (IC=0.5 to 1.1) mg/kg and the “maximum inhibition of alcohol self-administration (rank among reference ligands)” value (adult male Wistar rats; reference ligands, FIG. 1) was “achieved maximum inhibition”.
With Cc1cccc(Nc2cc(Cl)nc(SCC(=O)O)n2)c1C [WY14643, pirinixic acid] the “EC50 for inhibition” value (adult male Wistar rats) was 23.6 (IC=11.3 to 60.9) mg/kg.
For CCCCCNC(=O)c1ccc(NC(=O)c2cccc(CN3C(=O)OC[C@H]3Cc3ccccc3)c2)cc1 [NF 10-360, 3-((4-benzyl-2-oxooxazolidin-3-yl)methyl)-N-(4-(pentylcarbamoyl)phenyl)benzamide], the voluntary alcohol intake (Wistar rats) was “reduced alcohol intake” and the “operant responses to a 10% ethanol solution (alcohol self-administration)” value (adult male Wistar rats; 1 mg/kg, P<0.01, FIG. 2B) was “reduced operant responses”.
For CCCCCCCC/C=C\CCCCCCCC(=O)NCCO [OEA, oleoylethanolamide], the “EC50 for inhibition” value (adult male Wistar rats) was 6.5 (IC=3.2 to 13.2) mg/kg.
With CCCCCCCC/C=C\CCCCCCCC(=O)NC(C)Cc1ccc(O)c(O)c1 (stereo not drawn) [OLHHA, N-[1-(3,4-dihydroxyphenyl)propan-2-yl]oleamide] the “expression of mRNA of Fasn in liver” value ([1]; P<0.001, FIG. 4M) was “inhibited”, the “expression of PPAR receptor in liver” value ([1]; P<0.001, FIG. 4O) was “increased” and the “expression of mRNA of SCD1 in liver” value ([1]; P<0.01) was “inhibited”. For the same compound, the “expression of cytochrome c oxidase 4 in liver” value ([1]; P<0.01, FIG. 4N) was “increased”, the “toxicity: creatinine” value ([2]; msP rats, FIG. 4F) was “no impact” and the “inflammation: plasma concentrations of IL-6” value ([2]; msP rats, FIG. 4I) was “no effect”. The “inflammation: plasma concentrations of TNF” value ([2]; msP rats, FIG. 4J) was “no effect”, the “toxicity: transaminases” value ([2]; msP rats, FIGS. 4G and 4H) was “no impact” and the circulating triglycerides ([2]; msP rats, P<0.001, FIG. 4B) was “reduced”. The circulating cholesterol ([2]; msP rats, P<0.001, FIG. 4C) was “reduced”, the circulating uric acid ([2]; msP rats, P<0.01, FIG. 4D) was “reduced” and the glucose levels ([2]; rats exposed to alcohol, P<0.02, FIG. 4A) was “slightly reducing”. The “total alcohol intake recorded throughout treatment” value ([3]; 14 days, P<0.05, FIG. 3F) was “reduced significantly”, the “alcohol intake 2 hours after injection” value ([3]; P<0.0001, FIG. 3C) was “reduced alcohol intake” and the “alcohol intake 8 h after administration” value ([3]; P<0.001, FIG. 3D) was “also observed”. The “alcohol intake after 24 h” value ([3]; P=0.047, FIG. 3E) was “virtually disappeared”, the “maximum inhibition of oxycodone self-administration” value (Long-Evans rats) was 45 % of the control responses and the “EC50 for reduction of oxycodone self-administration” value (Long-Evans rats; non-linear regression, IC = confidence interval) was 11.3 mg/kg. The “alcohol self-administration tested 24 hours after administration” value (adult male Wistar rats; 24 hours after administration, FIG. 3B) was “absence of effects” and the “EC50 for inhibition” value (adult male Wistar rats) was 0.2 mg/kg.
For CC1(COc2ccc(CC3SC(=O)NC3=O)cc2)CCCCC1 (stereo not drawn) [ciglitazone], the “EC50 for inhibition” value (adult male Wistar rats) was 5.9 (IC=2.7 to 15.7) mg/kg.
